# Experimental data as given in patent publication US12077557B2, “Puromycin-based probes and methods of use thereof” (The Regents of the University of California, priority 2018, dated 2024).
# How the values were obtained:
# HeLa cells [1] = test: Immunostaining and confocal fluorescence imaging of HeLa cells treated with puromycin-based probes; type: cell-based, human; conditions: for change in fluorescence intensity with H2O2 pretreatment: H2O2 50 μM 2 h pretreatment; for change of immunofluorescence intensity with incubation time: basal analyte level; for change in immunofluorescence intensity with cysteine or GSH incubation: 1 μM compound and cysteine or GSH 100 μM, 4 h; for change in fluorescence intensity with paraquat co-incubation: 1 μM compound, paraquat 1 mM; for green immunofluorescence at 0.5 h: basal
# A431 cells = test: Immunostaining and confocal imaging of A431 cells with stimulation or inhibition of H2O2 or NO production; type: cell-based, human; conditions: for change in fluorescence intensity with EGF stimulation: EGF 100 ng/mL 20, 40, 60 min, then 1 μM compound 4 h
# Text: Human cervical epithelial carcinoma (HeLa), human epidermoid carcinoma (A-431) and human breast carcinoma (MDA-MB-231 and MDA-MB-468) were maintained in DMEM medium (high glucose) supplemented with GlutaMAX and 10 vol % FBS. Human breast carcinoma (MCF-7) was maintained in DMEM medium (high glucose) supplemented with GlutaMAX, 10 vol % FBS, 1 vol % non-essential amino acids and 1% sodium pyruvate. Human breast carcinoma (HS 578T) was maintained in DMEM medium (high glucose) supplemented with GlutaMAX, 10 vol % FBS, 1% sodium pyruvate and insulin (10 μg/mL). Human non-tumorigenic breast epithelial cells (MCF-10A) were maintained in DMEM/F12 (with L-glutamate, HEPES and phenol red) supplemented with 5 vol % horse serum, EGF (20 ng/mL), hydrocortisone ([…]), cholera toxin (100 ng/mL), insulin (10 μg/mL) and 1 vol % penicillin/streptomycin. Human normal breast epithelial cells (HS 578Bst) were maintained in ATCC Hybri-Care Medium (No. 46-X) supplemented with sodium bicarbonate ([…]), EGF (30 ng/mL) and 10 vol % FBS. All cells were incubated in 5% CO2 humidified air, and subcultured when 80% confluence was reached. For cell-imaging experiments, the cells were plated on 8-well Lab Tek borosilicate chambered coverglass slides (Nunc) or 24-well plates with 12 mm coverslips, and allowed to grow to ca. 60% confluency before performing the cell imaging experiments.
# Cells were incubated with the compound (1 μM) for indicated time intervals. The cells were then washed three-times by PBS solution and fixed by 4% paraformaldehyde at room temperature for 10 min. The cells were washed by PBS solution and PBS solution with 0.1 vol %-Triton X-100, followed by incubation with α-puromycin antibody [3RH11] (Kerafast; 1:500, v/v) in PBS solution containing 10 vol % FBS and 0.1 vol % Triton X-100 at 37° C. for 30 min. Subsequently, the cells were washed by PBS solution and PBS solution with 0.1 vol %-Triton X-100, and stained by α-mouse secondary antibody-Alexa Fluor 488 (1:100, v/v) in PBS solution containing 10 vol % FBS and 0.1 vol % Triton X-100 at 37° C. for 30 min. The cells were then washed by PBS solution and stained by Hoechst 33342 at room temperature for 10 min. After that, the cells were washed three-times by PBS solution and imaged by confocal fluorescence microscopy.
# EGF stimulation was carried out by pretreatment of A431 cells by EGF (100 ng/mL) for 20, 40 and 60 min, then washed by PBS and incubated with Peroxymycin-1 (1 μM) for 4 h.
# For the study with L-NAME, A431 cells were pretreated with L-NAME (100 μM) for 25 min, then washed by PBS and incubated with EGF (100 ng/mL) for 40 min, followed by washing and incubation with Peroxymycin-1 (1 μM) for 4 h.
# For the DPI experiment, the cells were pretreated with a mixture of DPI (5 μM) and EGF (100 ng/mL) for 40 min, followed by incubation with a mixture of DPI (5 μM) and Peroxymycin-1 (1 μM) for 4 h.
# For the inhibition of H2O2 production by gp91 Tat peptide, the cells were pretreated with gp91 Tat peptide (100 μM) for 30 min, then incubated with a mixture of gp91 Tat peptide (100 μM) and Peroxymycin-1 (1 μM) for 4 h.
# Confocal fluorescence cell imaging was performed with a Zeiss laser scanning microscope 710 with a 40× water-immersion objective lens using Zen 2009 software (Carl Zeiss). Hoechst 33342 was excited with a 405 nm diode laser, and emission was collected using a META detector between 450 and 500 nm. Alexa Fluor 488 was excited with 488 nm with an Ar laser, and emission was collected using a META detector between 500 and 625 nm. Alexa Fluor 647 was excited with a 633 nm HeNe laser, and emission was collected using a META detector between 638 and 647 nm. PBS solution was used as the imaging buffer for all the confocal experiments. Image analysis was performed using ImageJ. A region of interest (ROI) was created around a single cell, and cellular fluorescence intensity was measured. […]
# [2] = LC-MS study of reaction of probe with GSH and other substrates; conditions: 25° C.; probe 0.3 mM, GSH 1.0 mM
# Method: (§1) MilliQ water was used in all experiments unless otherwise stated. Reaction kinetics of the probes with species of interest and other substrates were investigated by LC-MS (Agilent Technology 6130, Quadrupole LC/MS) coupled with photodiode array for detection (X=275 nm). Confocal microscopy images were recorded on a Zeiss laser scanning microscope 710 with a 40× water-immersion objective lens using Zen 2009 software (Carl Zeiss).
# (§2) Peroxymycin-1 and Ctrl-Peroxymycin-1 (0.3 mM), respectively, were dissolved in phosphate buffer (20 mM, pH 7.4)-methanol solution mixture (2:1, v/v) with 3 vol % DMSO and allowed to stand at room temperature. At predetermined time intervals, an aliquot of the solution mixture was taken for LC-MS analysis. Separation was achieved by gradient elution from 5-100% MeOH in water (constant 0.1 vol % formic acid) over 8 min, isocratic with 100% MeOH from 8 to 12 min and returned to initial conditions and equilibrated for 3 minutes. The LC chromatograms were recorded by monitoring absorption at 275 nm.
# [3] = LC-MS study of reaction of probe with H2S and other substrates; conditions: 25° C.; probe 0.3 mM, H2S 1 mM
# Method: as §1, §2
# HeLa cells [4] = test: Confocal fluorescence imaging of HeLa cells treated with fluorescent H2O2 probe PF2; type: cell-based, human
# Text: (§3) Human cervical epithelial carcinoma (HeLa), human epidermoid carcinoma (A-431) and human breast carcinoma (MDA-MB-231 and MDA-MB-468) were maintained in DMEM medium (high glucose) supplemented with GlutaMAX and 10 vol % FBS. Human breast carcinoma (MCF-7) was maintained in DMEM medium (high glucose) supplemented with GlutaMAX, 10 vol % FBS, 1 vol % non-essential amino acids and 1% sodium pyruvate. Human breast carcinoma (HS 578T) was maintained in DMEM medium (high glucose) supplemented with GlutaMAX, 10 vol % FBS, 1% sodium pyruvate and insulin (10 μg/mL). Human non-tumorigenic breast epithelial cells (MCF-10A) were maintained in DMEM/F12 (with L-glutamate, HEPES and phenol red) supplemented with 5 vol % horse serum, EGF (20 ng/mL), hydrocortisone (0.5 mg/mL), cholera toxin (100 ng/mL), insulin (10 μg/mL) and 1 vol % penicillin/streptomycin. […]
# (§4) Confocal fluorescence cell imaging was performed with a Zeiss laser scanning microscope 710 with a 40× water-immersion objective lens using Zen 2009 software (Carl Zeiss). […] A region of interest (ROI) was created around a single cell, and cellular fluorescence intensity was measured. The reported cellular fluorescence intensity was determined by averaging the measured intensity of 5 different cells from at least 3 different images in triplicate experiments. […]
# [5] = Stability of probes in phosphate buffer-methanol mixture by LC-MS; type: physicochemical
# Method: as §1, §2
# [6] = LC-MS study of reaction of probe with H2O2 and other ROS; conditions: 25° C.; probe 0.3 mM, H2O2 0.1 mM
# Method: as §1, §2
# For the study of the reaction with H2O2, Peroxymycin-1 and Ctrl-Peroxymycin-1 (0.3 mm), respectively, were dissolved in phosphate buffer (20 mM, pH 7.4)-methanol solution mixture (2:1, v/v) with 3 vol % DMSO. H2O2 was then added to the solution mixture (final concentration=0.1 mM), and the reaction mixture was allowed to stand at room temperature. […]
# [7] = test system: panel of related cancer and non-tumorigenic breast cell lines; test: H2O2 profiling across a panel of cancer and non-tumorigenic breast cell lines; type: cell-based, human; conditions: 1 μM, 4 h; MDA-MB-231, HS 578T, MDA-MB-468, MCF-7, MCF-10A, HS 578Bst
# Text: as §3, with “μg/mL).” for “μg/mL). Human non-tumorigenic breast epithelial cells (MCF-10A) were maintained in DMEM/F12 (with L-glutamate, HEPES and phenol red) supplemented with 5 vol % horse serum, EGF (20 ng/mL), hydrocortisone (0.5 mg/mL), cholera toxin (100 ng/mL), insulin (10 μg/mL) and 1 vol % penicillin/streptomycin.”
# Cells were incubated with the compound (1 μM) for indicated time intervals. […] After that, the cells were washed three-times by PBS solution and imaged by confocal fluorescence microscopy.
# as §4
# [8] = H2S 100 μM 30 min, then 1 μM compound 4 h
structure (smiles),measurement,setting,value
COc1ccc(CC(NC(=O)OCCc2ccc(B3OC(C)(C)C(C)(C)O3)cc2)C(=O)NC2C(CO)OC(n3cnc4c(N(C)C)ncnc43)C2O)cc1 (stereo not shown) [Ctrl-Peroxymycin-1],change in fluorescence intensity with H2O2 pretreatment,HeLa cells [1]; then 1 μM compound 4 h,lack of signal
same,change in fluorescence intensity with EGF stimulation,A431 cells,no observable differences in immunofluorescence
COc1ccc(CC(NC(=O)OCCSSCCOC(C)=O)C(=O)NC2C(CO)OC(n3cnc4c(N(C)C)ncnc43)C2O)cc1 (stereo not shown) [GSH-Puro-1],pseudo-first-order rate constant of the reaction with GSH,[2],9.4e-05 s⁻¹
same,relative fluorescence intensity compared to cells treated by puromycin,"HeLa cells [1]; 1 μM, 4 h incubation",69%
same,relative fluorescence intensity compared to cells treated by puromycin,"HeLa cells [1]; 1 μM, 6 h incubation",79%
same,change of immunofluorescence intensity with incubation time,"HeLa cells [1]; 1 μM, HeLa cells",Time-dependent increase in immunofluorescence intensity
same,fluorescence with BSO pretreatment compared to no pretreatment,"HeLa cells [1]; BSO 1 mM 3 h, then probe 2 h",significantly weaker fluorescence
same,immunofluorescence with GSH or lipoic acid pretreatment compared to no pretreatment,"HeLa cells [1]; GSH 100 μM 24 h or lipoic acid 1.8 mM 24 h, then probe 2 h",stronger immunofluorescence
COc1ccc(CC(NC(=O)OCc2ccc(N=[N+]=[N-])cc2)C(=O)NC2C(CO)OC(n3cnc4c(N(C)C)ncnc43)C2O)cc1 (stereo not shown) [H2S-Puro-1],pseudo-first-order rate constant of the reaction with H2S,[3],6.3e-05 s⁻¹
same,change in immunofluorescence intensity with cysteine or GSH incubation,HeLa cells [1],significant increase in immunofluorescence intensity
same,relative fluorescence intensity compared to cells treated by puromycin,"HeLa cells [1]; 1 μM, 4 h incubation",around 5%
same,change of immunofluorescence intensity with incubation time,"HeLa cells [1]; 1 μM, HeLa cells",time-dependent increase in green fluorescence intensity
same,immunofluorescence with H2S pretreatment relative to no pretreatment,HeLa cells [1]; [8],1.4 fold
"COc1ccc2c(c1)Oc1cc(B3OC(C)(C)C(C)(C)O3)ccc1C21OC(=O)c2ccccc21 (stereo not shown) [PF2, Peroxyfluor-2]",cellular fluorescence (basal H2O2),"HeLa cells [4]; 10 μM for 0.5, 4 and 6 h, washed",negligible fluorescence
same,change in signal in response to Nox2 inhibition by gp91 Tat peptide,"HeLa cells [4]; gp91 Tat peptide 100 μM 30 min, PF2 10 μM 4 h",failed to show statistically significant decreases in signal
COc1ccc(CC(NC(=O)OCc2ccc(B3OC(C)(C)C(C)(C)O3)cc2)C(=O)NC2C(CO)OC(n3cnc4c(N(C)C)ncnc43)C2O)cc1 (stereo not shown) [Peroxymycin-1],stability in aqueous solution buffered to physiological pH,"[5]; 0.3 mM probe, phosphate buffer (20 mM, pH 7.4)-methanol (2:1, v/v), 3 vol % DMSO, room temperature",good stability
same,puromycin generation in the absence of H2O2,"[5]; control experiment, LC-MS",negligible puromycin generation
same,pseudo-first-order rate constant of the reaction with H2O2,[6],0.001 s⁻¹
same,change in fluorescence intensity with paraquat co-incubation,HeLa cells [1],significant increases in fluorescence intensity
same,fluorescence intensity with H2O2 co-incubation relative to cells treated with probe only,"HeLa cells [1]; 1 μM probe 4 h, H2O2 50 μM co-incubation for 2 h",4.3 times
same,relative fluorescence intensity compared to cells treated by puromycin,"HeLa cells [1]; 1 μM, 4 h incubation",30.5%
same,green immunofluorescence at 0.5 h,"HeLa cells [1]; 1 μM, HeLa cells",no significant green fluorescence
same,change of immunofluorescence intensity with incubation time,"HeLa cells [1]; 1 μM, HeLa cells",increases in fluorescence intensity
same,change in fluorescence intensity with H2O2 pretreatment,HeLa cells [1]; then 1 μM compound 4 h,statistically significant increase in fluorescence intensity
same,change in fluorescence intensity with EGF stimulation,A431 cells,statistically significant increase in fluorescence intensity
same,change in immunofluorescent signal with DPI incubation,"A431 cells; EGF 100 ng/mL 40 min, DPI 5 μM, probe 1 μM 4 h",statistically significant decrease in immunofluorescent signal
same,effect of L-NAME on EGF-stimulated immunofluorescence,"A431 cells; L-NAME 100 μM 25 min, EGF 100 ng/mL 40 min, probe 1 μM 4 h",does not block EGF-stimulated increases
same,immunofluorescence with gp91 Tat peptide compared to controls without inhibitor,"A431 cells; gp91 Tat peptide 100 μM 30 min, probe 1 μM 4 h",markedly lower levels
same,order of fluorescence intensities normalized to puromycin-treated cells,[7],metastatic/invasive cancer cells>cancer cells>non-tumorigenic cells
COc1ccc(C[C@H](N)C(=O)N[C@H]2[C@@H](O)[C@H](n3cnc4c(N(C)C)ncnc43)O[C@@H]2CO)cc1 [puromycin],change in immunofluorescence intensity with cysteine or GSH incubation,HeLa cells [1],negligible change in fluorescence intensity
same,change in fluorescence intensity with paraquat co-incubation,HeLa cells [1],no significant changes in fluorescence
same,time of saturation of green fluorescence,"HeLa cells [1]; 1 μM, HeLa cells",1 h
same,green immunofluorescence at 0.5 h,"HeLa cells [1]; 1 μM, HeLa cells",strong green fluorescence
same,change in fluorescence intensity with H2O2 pretreatment,HeLa cells [1]; then 1 μM compound 4 h,lack of observed changes in fluorescence intensity
same,change in immunofluorescence intensity by H2S pretreatment,HeLa cells [1]; [8],No significant change in immunofluorescence intensity
same,"change in immunofluorescence intensity with GSH, lipoic acid or BSO pretreatment",HeLa cells [1]; puromycin control,no significant change in immunofluorescence intensity
same,change in fluorescence intensity with EGF stimulation,A431 cells,do not show any significant changes in fluorescence intensity
